Results on 1 substance are retold here after US8993721B2, “Peptides for targeting apoptotic cells and uses thereof” (Kyungpook National University Industry-Academic Cooperation …, priority 2008, dated 2015).

“Also recorded” adds a separate entry of the source. Where no end group is shown, it is not given here.

Test [1] has as its system apoptotic cells in A549 tumor tissue xenotransplanted in nude mouse. The experiment in a line: Histological analysis of tumor targeting (Example 8). It is filed as in vivo. As to conditions: fluorescein-labeled peptide, tail vein, 50 μM. The protocol: All animal experiments were performed in accordance with the guideline of the Institutional Animal Care and Use Committee. For tumor xenotransplantation, human lung cancer cells (A549, 1×10^6 cells) suspended in RMPI-1640 medium was subcutaneously injected at the right upper or lower limb of a 6-week-old male BALB/c nude mouse (Hyochang Science). Then, 3 to 4 weeks were given for the tumor to grow to a size of 0.5 to 1 cm. The A549 cell line used in the experiment was cultured in RMPI-1640 medium containing 10% fetal bovine serum (FBS) in which antibiotics (penicillin and streptomycin) were included. Subculturing was performed every 3 or 4 days.
The peptides used in the present invention were fluorescein-attached form at the N-terminal. They were synthesized according to the standard Fmoc technique and then isolated through HPLC. The peptide synthesis was performed by an expertise company (Peptron). […]
For histological analysis, the mouse was anesthetized and the abdomen was cut open. […] After treatment with a mounting solution containing the nuclear stain 4′,6-diamidino-2-phenylindole (DAPI) (Invitrogen), images of the cells were obtained under a fluorescence microscope (Zeiss).

Test [2] has as its system A549 tumor xenotransplanted in nude mice. The test is described as follows: In vivo fluorescence imaging of targeting of apoptotic cells in tumor (Example 10). More on the design: species or system mouse. The settings on record: fluorescein-labeled; large tumor (1 cm or larger).

Take “CSVAPR (also: fluorescein or Cy7.5 label) [ApoPep-2, peptide CSVAPR screened for endothelial cells; used fluorescein- or Cy7.5-labeled]”: in test [1] (2 hours), the “binding to cells stained by TUNEL (apoptotic cells) in the tumor tissue” value was “target the tumor tissue and mainly bind to the tumor cells undergoing apoptosis; also recorded: binds to the cells stained by TUNEL”. In addition, the “peptide fluorescence observed in the tumor tissue” value in test [1] (2 hours circulation) is reported as “observed in the tumor tissue”. Further, in test [2], the “fluorescence signal from the tumor at 5 hours” value is “strong fluorescence signal”.
